{
  "source": "patent US5362743A",
  "about": "“Aminoquinoline derivatives” (Pfizer Inc., priority 1993, dated 1994)",
  "key": {"gastric H^+ /K^+ -ATPase": {"molecular_target": "T1, gastric H^+ /K^+ -ATPase (Sus scrofa, UniProt P19156)", "T1 construct": "preparing the microsomes from hog gastric mucosa; from tissue; host or cells: hog gastric mucosa (microsomes)", "T1 sequence (P19156 2-1034 limits assumed)": "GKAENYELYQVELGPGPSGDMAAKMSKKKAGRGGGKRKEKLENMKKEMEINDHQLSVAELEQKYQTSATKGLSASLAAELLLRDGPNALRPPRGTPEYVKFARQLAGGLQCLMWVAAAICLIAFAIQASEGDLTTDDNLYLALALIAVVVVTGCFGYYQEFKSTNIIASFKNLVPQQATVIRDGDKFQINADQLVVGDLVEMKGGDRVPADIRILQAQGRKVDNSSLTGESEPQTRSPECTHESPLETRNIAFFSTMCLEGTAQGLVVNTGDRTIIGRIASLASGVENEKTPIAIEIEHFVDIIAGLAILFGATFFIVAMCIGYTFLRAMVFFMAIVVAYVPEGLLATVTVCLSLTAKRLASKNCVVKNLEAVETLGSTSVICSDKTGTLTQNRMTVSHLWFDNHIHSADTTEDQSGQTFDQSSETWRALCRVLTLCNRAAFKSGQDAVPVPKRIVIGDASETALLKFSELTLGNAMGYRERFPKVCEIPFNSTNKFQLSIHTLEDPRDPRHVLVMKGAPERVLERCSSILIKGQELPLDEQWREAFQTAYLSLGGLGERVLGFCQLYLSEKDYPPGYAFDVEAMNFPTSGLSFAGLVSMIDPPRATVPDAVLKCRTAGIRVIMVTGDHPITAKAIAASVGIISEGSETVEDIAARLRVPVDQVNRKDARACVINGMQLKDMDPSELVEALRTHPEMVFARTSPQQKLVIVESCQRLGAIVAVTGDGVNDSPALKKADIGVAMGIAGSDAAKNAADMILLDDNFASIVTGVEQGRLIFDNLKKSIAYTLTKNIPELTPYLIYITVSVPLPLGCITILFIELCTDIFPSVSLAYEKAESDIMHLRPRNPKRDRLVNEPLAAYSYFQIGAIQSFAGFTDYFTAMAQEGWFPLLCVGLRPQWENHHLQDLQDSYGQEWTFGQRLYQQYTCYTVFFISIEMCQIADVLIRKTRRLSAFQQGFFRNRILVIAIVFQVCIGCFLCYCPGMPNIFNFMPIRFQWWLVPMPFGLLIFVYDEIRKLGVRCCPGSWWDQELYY", "T1 sequence (P18434 whole entry partner)": "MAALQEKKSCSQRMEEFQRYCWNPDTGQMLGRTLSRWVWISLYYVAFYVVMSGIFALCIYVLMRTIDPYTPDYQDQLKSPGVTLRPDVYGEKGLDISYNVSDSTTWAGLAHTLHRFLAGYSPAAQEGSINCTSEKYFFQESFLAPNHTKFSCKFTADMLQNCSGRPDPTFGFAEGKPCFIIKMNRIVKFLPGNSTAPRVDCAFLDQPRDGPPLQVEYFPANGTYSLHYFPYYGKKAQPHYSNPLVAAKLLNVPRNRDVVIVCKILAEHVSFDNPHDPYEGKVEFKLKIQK", "test": "gastric H+/K+-ATPase inhibition in isolated porcine gastric microsomes (phosphate release)", "assay_type": "biochemical", "protocol": "The activity of the compounds of the present invention as anti-ulcer agents, useful in the treatment of gastric disease in mammals, such as peptic ulcers, etc., is assessed by their ability to inhibit gastric H^+ /K^+ -ATPase, using isolated porcine gastric microsomes and essentially employing a modification of the method first described by G. Saccomani et al., as initially reported in Biochimica Biophysica Acta, Vol. 465, p. 311 (1977). The modification involves preparing the microsomes from hog gastric mucosa according to the procedure first described by L-A. Yeh et al., in Membrane Biochemistry, Vol. 9, p. 129 (1991). The H^+ /K^+ -ATPase enzyme activity is assayed according to the procedure described by N. Chang et al., in Biochimica Biophysica Acta, Vol. 464, p. 313 (1977), using a medium containing […], 3 mM ATP, 50 mM Tris-HCl (pH 7.4) and 2 mM MgCl2 with or without 10 mM KCl in a final volume of 1.1 mL. The incubation step is initially carried out at 37° C. for a period of 15 minutes. The reaction is then terminated by the addition of 100 μL of 50% TCA (trichloroacetic acid). Phosphate release is next measured spectrophotometrically in the manner described by C. H. Fiske et al., in the Journal of Biological Chemistry, Vol. 66, p. 375 (1925)."}, "osteoclasts": {"system": "osteoclasts", "test": "bone slice assay: bone resorption by isolated osteoclasts (scanning electron microscopy)", "assay_type": "cell-based, neonatal rat", "conditions": "isolated osteoclasts on bone slices", "protocol": "155, (1985), as well as in Endocrinology, Vol. 116, p. 234 (1985). In this assay, osteoclasts are mechanically disaggregated from neonatal rat long bones into Hepes-buffered medium 199 (available from Flow Laboratories of Irvine, […] in the United Kingdom). The suspension is agitated with a pipette and the larger fragments were allowed to settle for a period of 30 seconds. The cells are then added to two wells of a multiwell-dish containing bone slices, with each of said slices measuring 2.5 mm^2. After incubating at 37° C. for a period of 15 minutes, the aforesaid bone slices are then removed, washed in medium 199 and placed in individual wells of a 96-well plate (also available from Flow Laboratories). These latter bone slices are then incubated overnight in a total volume of […] of culture medium consisting of 10% newborn calf-serum (from Flow Laboratories) in Hanks-buffered MEM (also from Flow Laboratories) in the presence or absence of the test compound. Bone resorption is quantified by means of scanning electron microscopy. […] The number and size of the osteoclastic excavations, and the plan area of bone resorbed is recorded. Differences between groups are then analyzed by means of Student's t-Test."}},
  "data": [
    {"smiles": "CCOC(=O)CCC(=O)c1cnc2c(OC)cccc2c1Nc1ccccc1C", "note": "[Example 1, 3-(3-ethoxycarbonylpropionyl)-8-methoxy-4-(2-methylphenylamino)quinoline]", "values": [
      {"measurement": "inhibition at 10 µM", "setting": "gastric H^+ /K^+ -ATPase; at 10 μM", "result": "~50", "unit": "%"},
      {"measurement": "nature of H+/K+-ATPase inhibition", "setting": "gastric H^+ /K^+ -ATPase; porcine gastric microsomes", "result": "both reversibly and specifically"},
      {"measurement": "IC50", "setting": "gastric H^+ /K^+ -ATPase; porcine gastric microsomes, 37° C., 15 minutes, pH 7.4, read-out: IC50 value range, inhibition of gastric H+/K+-ATPase", "result": "10 to 20", "unit": "µM"},
      {"measurement": "minimal effective concentration", "setting": "osteoclasts; Rattus norvegicus, Osteoclast, overnight incubation, dose-responsive, read-out: concentration level at which statistically significant inhibition of bone resorption occurs", "result": 0.1, "unit": "µM"},
      {"measurement": "inhibition of lacunae formation and bone resorption (in words)", "setting": "osteoclasts", "result": "potent inhibitor of lacunae formation and of resultant bone resorption"}
    ]}
  ]
}
